Assay [1] concerns the target ABL1 (Homo sapiens, UniProt P00519). Description: Kinobeads two-dose competition binding: ABL1. Particulars: sheet CATDS matrix 2; Gene Name ABL1.
For assay [2], the target named is T1, ACOX1 (Homo sapiens, UniProt Q15067).
T1 construct: endogenous in cells
T1 sequence (Q15067 1-660): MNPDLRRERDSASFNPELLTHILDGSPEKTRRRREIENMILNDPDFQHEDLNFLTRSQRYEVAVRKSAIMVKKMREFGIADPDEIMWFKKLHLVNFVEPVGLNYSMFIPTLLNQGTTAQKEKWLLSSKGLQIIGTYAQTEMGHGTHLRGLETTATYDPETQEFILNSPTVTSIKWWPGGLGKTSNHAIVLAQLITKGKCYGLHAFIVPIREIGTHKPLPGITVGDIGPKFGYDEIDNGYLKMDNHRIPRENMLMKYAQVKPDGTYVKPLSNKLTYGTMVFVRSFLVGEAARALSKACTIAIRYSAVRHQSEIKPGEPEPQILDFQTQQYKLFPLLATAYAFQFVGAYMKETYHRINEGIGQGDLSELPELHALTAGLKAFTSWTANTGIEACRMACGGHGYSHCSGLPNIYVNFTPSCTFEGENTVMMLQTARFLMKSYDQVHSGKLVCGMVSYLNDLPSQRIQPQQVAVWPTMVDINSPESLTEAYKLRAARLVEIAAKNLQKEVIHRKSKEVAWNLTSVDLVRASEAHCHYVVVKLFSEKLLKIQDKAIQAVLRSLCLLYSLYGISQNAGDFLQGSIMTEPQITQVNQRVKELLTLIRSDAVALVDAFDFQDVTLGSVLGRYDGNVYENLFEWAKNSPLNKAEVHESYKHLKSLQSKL
Description: Kinobeads two-dose competition binding: ACOX1.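 Also: competition of compounds with immobilized broad-spectrum kinase inhibitor beads in cell lysate at 100 and 1,000 nM, 45 min at 4 °C, bead-bound protein quantified by label-free MS versus DMSO.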 The settings on record: sheet CATDS matrix 2; Gene Name ACOX1.

Assay [3] concerns the target T2, ACAD11 (Homo sapiens, UniProt Q709F0).
T2 construct: endogenous in cells
T2 sequence (Q709F0 1-780): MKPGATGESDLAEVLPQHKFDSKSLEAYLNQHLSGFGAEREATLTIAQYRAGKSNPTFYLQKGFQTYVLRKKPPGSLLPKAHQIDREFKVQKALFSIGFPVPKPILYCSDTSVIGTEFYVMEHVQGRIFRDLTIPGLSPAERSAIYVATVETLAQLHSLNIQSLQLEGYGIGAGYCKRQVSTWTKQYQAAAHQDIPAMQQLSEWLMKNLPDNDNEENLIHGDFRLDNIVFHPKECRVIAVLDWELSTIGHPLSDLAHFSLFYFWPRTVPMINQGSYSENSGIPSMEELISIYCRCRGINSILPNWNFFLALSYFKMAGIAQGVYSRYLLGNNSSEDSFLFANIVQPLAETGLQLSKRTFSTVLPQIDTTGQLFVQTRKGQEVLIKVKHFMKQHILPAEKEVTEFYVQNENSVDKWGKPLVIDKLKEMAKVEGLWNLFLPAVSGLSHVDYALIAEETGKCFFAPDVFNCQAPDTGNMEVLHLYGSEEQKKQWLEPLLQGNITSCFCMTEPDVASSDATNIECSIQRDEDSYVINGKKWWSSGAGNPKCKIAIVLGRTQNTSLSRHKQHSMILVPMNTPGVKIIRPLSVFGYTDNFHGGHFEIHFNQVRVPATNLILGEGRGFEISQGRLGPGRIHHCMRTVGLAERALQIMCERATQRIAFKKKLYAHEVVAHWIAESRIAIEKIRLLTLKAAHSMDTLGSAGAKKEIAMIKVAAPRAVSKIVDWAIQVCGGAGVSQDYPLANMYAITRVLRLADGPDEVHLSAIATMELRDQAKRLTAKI
Description: Kinobeads two-dose competition binding: ACAD11. Particulars: sheet CATDS matrix 2; Gene Name ACAD11.

Assay [4] has as its target T3, ABL2 (Homo sapiens, UniProt P42684).
T3 construct: endogenous in cells
Description: Kinobeads two-dose competition binding: ABL2. The settings on record: sheet CATDS matrix 2; Gene Name ABL2.

In assay [5] the target is T4, AAK1 (Homo sapiens, UniProt Q2M2I8).
T4 construct: to maximize the representation of endogenous proteins; endogenous in cells
Description: Kinobeads two-dose competition binding: AAK1.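 As to all read-outs here: kinobeads competition pulldown from cell lysate, compound preincubated 45 min at 4 °C, bead-bound protein measured by label-free mass spectrometry against DMSO vehicle control.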 The settings on record: for CATDS: sheet CATDS matrix 2, Gene Name AAK1; for potency estimated from few doses: sheet "Kinobeads Drugmatrix - all", unit inferred, same values below 1000 recur in sheet "nanomolar", read-out: Kinobeads Drugmatrix - all: apparent Kd, AAK1.

Sequence of ABL1 (P00519 28-1130 limits assumed): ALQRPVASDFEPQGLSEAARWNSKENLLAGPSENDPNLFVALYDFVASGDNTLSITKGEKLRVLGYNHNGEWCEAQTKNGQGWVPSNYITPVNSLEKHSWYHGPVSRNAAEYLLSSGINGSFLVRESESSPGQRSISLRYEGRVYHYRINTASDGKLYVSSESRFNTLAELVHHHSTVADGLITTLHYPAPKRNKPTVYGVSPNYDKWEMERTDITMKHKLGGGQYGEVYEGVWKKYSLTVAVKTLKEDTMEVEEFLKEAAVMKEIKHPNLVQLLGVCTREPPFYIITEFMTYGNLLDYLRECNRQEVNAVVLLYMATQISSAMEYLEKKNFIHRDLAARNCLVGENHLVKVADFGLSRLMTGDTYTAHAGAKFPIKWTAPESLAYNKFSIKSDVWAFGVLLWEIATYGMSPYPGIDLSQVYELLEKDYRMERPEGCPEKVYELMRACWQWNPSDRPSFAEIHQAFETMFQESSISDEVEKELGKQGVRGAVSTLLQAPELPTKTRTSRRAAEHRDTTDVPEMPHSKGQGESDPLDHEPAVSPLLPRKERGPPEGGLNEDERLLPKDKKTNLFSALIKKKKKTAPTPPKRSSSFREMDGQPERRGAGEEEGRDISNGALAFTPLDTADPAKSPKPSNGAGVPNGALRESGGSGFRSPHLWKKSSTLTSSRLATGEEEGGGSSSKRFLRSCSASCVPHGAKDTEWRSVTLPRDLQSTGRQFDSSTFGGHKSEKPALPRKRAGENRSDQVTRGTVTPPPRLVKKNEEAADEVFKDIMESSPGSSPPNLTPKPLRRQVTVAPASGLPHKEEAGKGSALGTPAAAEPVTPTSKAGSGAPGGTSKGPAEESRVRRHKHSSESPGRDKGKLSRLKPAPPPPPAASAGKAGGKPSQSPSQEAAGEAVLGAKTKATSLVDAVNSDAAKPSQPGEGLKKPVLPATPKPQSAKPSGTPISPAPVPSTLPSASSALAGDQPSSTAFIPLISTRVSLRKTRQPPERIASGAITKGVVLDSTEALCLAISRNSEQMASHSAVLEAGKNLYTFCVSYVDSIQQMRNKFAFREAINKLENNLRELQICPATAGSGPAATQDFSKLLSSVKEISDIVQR
T4 sequence (Q2M2I8 whole entry): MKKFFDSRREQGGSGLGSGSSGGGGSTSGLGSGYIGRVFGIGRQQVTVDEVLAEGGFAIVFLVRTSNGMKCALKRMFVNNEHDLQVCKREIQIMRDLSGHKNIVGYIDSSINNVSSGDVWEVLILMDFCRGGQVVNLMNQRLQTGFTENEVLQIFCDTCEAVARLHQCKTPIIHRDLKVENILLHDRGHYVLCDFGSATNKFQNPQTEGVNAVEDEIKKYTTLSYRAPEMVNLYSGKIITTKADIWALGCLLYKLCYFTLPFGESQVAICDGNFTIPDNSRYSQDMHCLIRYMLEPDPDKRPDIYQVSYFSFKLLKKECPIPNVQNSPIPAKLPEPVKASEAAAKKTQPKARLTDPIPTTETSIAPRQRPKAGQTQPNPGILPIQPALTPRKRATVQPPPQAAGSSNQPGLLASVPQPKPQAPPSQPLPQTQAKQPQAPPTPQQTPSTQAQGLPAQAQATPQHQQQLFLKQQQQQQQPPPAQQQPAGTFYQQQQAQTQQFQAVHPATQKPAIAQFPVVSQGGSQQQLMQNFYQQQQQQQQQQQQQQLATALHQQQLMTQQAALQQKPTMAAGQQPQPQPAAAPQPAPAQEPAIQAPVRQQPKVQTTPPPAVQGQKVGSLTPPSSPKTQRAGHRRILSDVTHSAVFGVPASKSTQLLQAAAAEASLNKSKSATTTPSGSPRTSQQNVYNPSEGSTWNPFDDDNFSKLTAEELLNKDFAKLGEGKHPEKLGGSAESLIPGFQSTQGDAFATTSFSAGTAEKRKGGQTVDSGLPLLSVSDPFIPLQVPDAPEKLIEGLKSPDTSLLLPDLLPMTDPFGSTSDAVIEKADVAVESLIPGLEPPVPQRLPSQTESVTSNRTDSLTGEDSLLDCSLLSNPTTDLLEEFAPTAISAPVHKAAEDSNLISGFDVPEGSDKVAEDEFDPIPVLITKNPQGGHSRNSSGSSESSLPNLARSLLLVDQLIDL
T3 sequence (P42684 whole entry): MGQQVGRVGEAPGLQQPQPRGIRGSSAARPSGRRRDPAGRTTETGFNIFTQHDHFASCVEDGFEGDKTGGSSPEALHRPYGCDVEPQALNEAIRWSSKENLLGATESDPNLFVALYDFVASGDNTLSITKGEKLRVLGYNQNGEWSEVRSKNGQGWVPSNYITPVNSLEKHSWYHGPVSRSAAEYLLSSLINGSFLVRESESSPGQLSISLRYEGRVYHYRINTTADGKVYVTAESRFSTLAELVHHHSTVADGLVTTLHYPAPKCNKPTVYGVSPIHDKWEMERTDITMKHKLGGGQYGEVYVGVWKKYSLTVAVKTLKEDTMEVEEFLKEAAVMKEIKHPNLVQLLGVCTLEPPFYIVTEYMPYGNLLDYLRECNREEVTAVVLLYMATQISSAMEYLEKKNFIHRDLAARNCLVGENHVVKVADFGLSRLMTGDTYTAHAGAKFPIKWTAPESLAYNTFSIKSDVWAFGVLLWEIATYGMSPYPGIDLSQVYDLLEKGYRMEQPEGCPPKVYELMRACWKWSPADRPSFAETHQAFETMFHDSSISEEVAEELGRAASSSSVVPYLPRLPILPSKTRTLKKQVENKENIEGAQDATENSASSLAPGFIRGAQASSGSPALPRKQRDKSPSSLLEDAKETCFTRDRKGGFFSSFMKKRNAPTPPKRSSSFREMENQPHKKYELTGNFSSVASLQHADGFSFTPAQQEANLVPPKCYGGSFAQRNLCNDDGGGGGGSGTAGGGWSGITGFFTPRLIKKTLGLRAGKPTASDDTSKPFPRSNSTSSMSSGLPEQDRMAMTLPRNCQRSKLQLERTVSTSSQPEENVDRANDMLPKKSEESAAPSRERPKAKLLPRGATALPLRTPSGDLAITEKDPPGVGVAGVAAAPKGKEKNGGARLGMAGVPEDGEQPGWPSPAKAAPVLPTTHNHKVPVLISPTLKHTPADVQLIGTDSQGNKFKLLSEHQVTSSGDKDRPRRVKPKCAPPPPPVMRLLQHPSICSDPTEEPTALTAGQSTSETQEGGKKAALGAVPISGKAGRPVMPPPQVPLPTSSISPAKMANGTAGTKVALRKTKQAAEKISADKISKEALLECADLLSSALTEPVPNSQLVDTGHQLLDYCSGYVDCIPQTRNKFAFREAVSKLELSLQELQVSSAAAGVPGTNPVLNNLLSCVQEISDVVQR

Consider `c1ccc(Cc2nc3ccc(Nc4ncnc5ccccc45)cc3[nH]2)cc1` [GR269666A_KCGS], for which the CATDS in assay [1], in assay [2], in assay [3], in assay [4] and in assay [5] was 0 each time.

As to `CNS(=O)(=O)c1ccc(N(C)C)c(Nc2ncnc3cc(OC)c(OC)cc23)c1` [GSK114], the CATDS in assay [1], in assay [2], in assay [3], in assay [4] and in assay [5] was 0 each time.

Regarding `CC1=C(C(=O)Nc2ccc3[nH]ncc3c2)C(c2ccc(F)cc2)NC(=O)N1` (stereo not drawn) [GSK180736A], the CATDS in assay [1], in assay [2], in assay [3], in assay [4] and in assay [5] was 0 in each case.

For the compound `CN(C)C(=O)O[C@H]1CN[C@H](C#Cc2cc3ncnc(Nc4ccc(OCc5cccc(F)c5)c(Cl)c4)c3s2)C1` [GSK182497A], the CATDS in assay [1], in assay [2], in assay [3], in assay [4] and in assay [5] was 0 each time.

Take `Cc1cnc(N)c(/C=C/c2cncc(C(=O)NCCc3ccc(Cl)cc3Cl)c2)c1` [GSK190937A]: the CATDS in assay [1], in assay [2], in assay [3], in assay [4] and in assay [5] was 0 in each case.

Consider `CCNC(=O)O[C@H]1CN[C@H](C#Cc2cc3ncnc(Nc4ccc(OCc5cccc(F)c5)c(Cl)c4)c3s2)C1` [GSK192082A], for which the CATDS in assay [1], in assay [2], in assay [3], in assay [4] and in assay [5] was 0 each time.

`O=C(Nc1cccc(-c2nn3ncccc3c2-c2ccnc(Nc3ccccc3)n2)c1)c1c(F)cccc1F` [GSK198271A]: the CATDS in assay [1], in assay [2], in assay [3], in assay [4] and in assay [5] was 0 in each case.

As to `O=C(O[C@H]1CN[C@H](C#Cc2cc3ncnc(Nc4ccc5c(cnn5Cc5ccccc5)c4)c3s2)C1)N1CCOCC1` [GSK200398A_KCGS], the CATDS in assay [1], in assay [2], in assay [3], in assay [4] and in assay [5] was 0 each time.

In the case of `COc1cc2ncn(-c3cc(OCC4CCCCC4)c(C(N)=O)s3)c2cc1OC` [GSK204559A], the CATDS in assay [1], in assay [2], in assay [3], in assay [4] and in assay [5] was 0 each time.

With `COc1cc2ncn(-c3cc(OCC4CCCO4)c(C(N)=O)s3)c2cc1OC` (stereo not drawn) [GSK204607A], the CATDS in assay [1], in assay [2], in assay [3], in assay [4] and in assay [5] was 0 each time.

On to `COc1ccc2nc(-c3cccc(C)n3)nc(Nc3ccncc3)c2c1` [GSK204919_KCGS], for which the CATDS in assay [1], in assay [2], in assay [3], in assay [4] and in assay [5] was 0 throughout.

On to `COc1cc2ncn(-c3cc(OCCc4ccccc4)c(C(N)=O)s3)c2cc1OC` [GSK204925A], for which the CATDS in assay [1], in assay [2], in assay [3], in assay [4] and in assay [5] was 0 each time.

With `Cc1cccc(-c2cc(Nc3ccncc3)c3ccccc3n2)n1` [GSK223675A], the CATDS in assay [1], in assay [2], in assay [3], in assay [4] and in assay [5] was 0 in each case.

Turning to `CCn1c(-c2nonc2N)nc2c(C#CC(C)(C)O)nc(O[C@@H](CN)c3ccccc3)cc21` [GSK1007102B], the CATDS in assay [1] was determined as 0; in assay [2] it was 0; in assay [3] it was 0; in assay [4], 0; in assay [5], 0.04112. Besides, in assay [5], the potency estimated from few doses is 67.3 nM.

`Cc1ccc(NC(=O)Nc2cc(C(C)(C)C)nn2-c2ccccc2)cc1` [GSK1014915A]: the CATDS in assay [1], in assay [2], in assay [3], in assay [4] and in assay [5] was 0 each time.

Consider `NC(=O)c1sc(-n2cnc3ccccc32)cc1OCc1ccccc1Br` [GSK1023156A], for which the CATDS in assay [1], in assay [2], in assay [3], in assay [4] and in assay [5] was 0 throughout.

Take `NC(=O)c1sc(-n2cnc3ccccc32)cc1OCc1ccccc1F` [GSK1024306A]: the CATDS in assay [1], in assay [2], in assay [3], in assay [4] and in assay [5] was 0 in each case.

Regarding `COc1cc2ncn(-c3cc(OCc4ccccc4C(F)(F)F)c(C(C)=O)s3)c2cc1OC` [GSK1030059A], the CATDS in assay [1], in assay [2], in assay [3], in assay [4] and in assay [5] was 0 in each case.

Consider `O=c1[nH]cc(-c2ccc(O)cc2)c2sc(-c3ccncc3)cc12` [GSK1033723A], for which the CATDS in assay [1], in assay [2], in assay [3], in assay [4] and in assay [5] was 0 in each case.

With `Nc1nccc(-c2ccc3c(N)n[nH]c3c2)n1` [GSK1034945A], the CATDS came out at 0 in assay [1]; 0 in assay [2]; 0 in assay [3]; 0 in assay [4]; 0.08249 in assay [5]. Moreover, the potency estimated from few doses in assay [5] is 194 nM.

With `c1ccc(-c2cc3ccncc3cc2OC2CCNCC2)cc1` [GSK1122999D], the CATDS in assay [1], in assay [2], in assay [3], in assay [4] and in assay [5] was 0 throughout.

As for `CCCN1CCCC(c2ccc(Nc3nc(Nc4cc(F)ccc4C(N)=O)c4cc[nH]c4n3)c(OC)c2)C1` (stereo not drawn) [GSK1173862A], the CATDS in assay [1], in assay [2], in assay [3], in assay [4] and in assay [5] was 0 each time.

With `COc1cc(N2CCN(C(C)C)CC2)ccc1Nc1nc(Nc2ccc(F)cc2C(N)=O)c2cc[nH]c2n1` [GSK1220512A], the CATDS in assay [1], in assay [2], in assay [3], in assay [4] and in assay [5] was 0 each time.

Take `COc1ccc(Nc2nccc(-c3ccc(NC(=O)c4cc5cc(F)ccc5[nH]4)cc3)n2)cc1` [GSK1229496A]: the CATDS in assay [1], in assay [2], in assay [3], in assay [4] and in assay [5] was 0 each time. Moreover, the potency estimated from few doses in assay [5] is more than 1000 nM.

The values above are taken from publication PMC11062922 (Nature Chemical Biology, 2023).
